What was measured:
Test in all cases: Antibacterial assay, minimal inhibitory concentration (MIC), microtiter broth dilution
Format in all cases: cell-based
[1] = test system: S. aureus strain ATCC 25923; details: S. aureus ATCC 25923; Mueller Hinton broth; 16-20 hours at 37° C.
Excerpt: (§1) Table I, which follows, indicates the Minimal Inhibitory Concentration (MIC) in μg/ml of Peptides (SEQ ID NO:1) through (SEQ ID NO:27 ) against S. aureus strain ATCC 25923, P. aeruginosa strain ATCC 27853, and E.coli ATCC strain 25922. (Legend) The procedure for the antibacterial assay is based upon the guidelines of the National Committee for Clinical Laboratory Standards, Document M7-T2, Volume 8, No. 8, 1988. Stock solutions of the hereinabove described peptides in accordance with the present invention are prepared at a concentration of 512 μg/ml in sterile deionized distilled water and stored at -70° C. The stock peptide solution is diluted in serial dilutions (1:2) down the wells of a microtiter plate so that the final concentrations of peptides in the wells are 0.25, 0.50, 1, 2, 4, 8, 16, 32, 64, 128, and 256 μg/ml. 1-5×10^5 CFUs/ml of either S. aureus ATCC 25923, E. coli ATCC 25922, or P. aeruginosa ATCC 27853 were added to the wells in full strength Mueller Hinton broth (BBL 11443) from a mid-log culture. The inoculum is standardized spectrophotometrically at 600 nm and is verified by colony counts. The plates are incubated for 16-20 hours at 37° C., and the minimal inhibitory concentration (MIC) for each peptide is determined. Minimal inhibitory concentration is defined as the lowest concentration of peptide which produces a clear well in the microtiter plate.

[2] = test system: P. aeruginosa strain ATCC 27853; details: P. aeruginosa ATCC 27853; Mueller Hinton broth; 16-20 hours at 37° C.
Excerpt: as §1

[3] = test system: E.coli ATCC strain 25922; details: E. coli ATCC 25922; Mueller Hinton broth; 16-20 hours at 37° C.
Excerpt: as §1

| Substance | Minimal Inhibitory Concentration (MIC), Activity, S. aureus [1] | Minimal Inhibitory Concentration (MIC), Activity, P. aeruginosa [2] | Minimal Inhibitory Concentration (MIC), Activity, E. coli [3] |
| --- | --- | --- | --- |
| SEQ ID NO: 21: biologically active amphiphilic peptide (GLASLLGKALKAALKIGANMLGGSPQQ) | 64 µg/mL | 128 µg/mL | 32 µg/mL |
| SEQ ID NO: 25: biologically active amphiphilic peptide (GFKKFLGKALKAALKIGANLLGGTPQQ) | 8,16 μg/ml | 32 µg/mL | 8,32 μg/ml |
| SEQ ID NO: 27: biologically active amphiphilic peptide (GLASLLGKALKAALKIGANLLGGTPQQ) | 32 µg/mL | 128 µg/mL | 32 µg/mL |
| SEQ ID NO: 22: biologically active amphiphilic peptide (GFGSFLGKALKAALKIGANLLGGTPQQ) | 16 µg/mL | 16,32 μg/ml | 8,16 μg/ml |
| SEQ ID NO: 26: biologically active amphiphilic peptide (GLASFLGKALKAALKIGANLLGGTPQQ) | 16,32 μg/ml | 64,128 μg/ml | 8,16 μg/ml |
| SEQ ID NO: 24: biologically active amphiphilic peptide (GFGKFLGKALKAALKIGANLLGGTPQQ) | 8 µg/mL | 16 µg/mL | 8,16 μg/ml |
| SEQ ID NO: 23: biologically active amphiphilic peptide (GFAKFLGKALKAALKIGANLLGGTPQQ) | 8 µg/mL | 8,16 μg/ml | 4,8 μg/ml |
